Data taken from paper PMC6797236, “Bacillus subtilis PgcA moonlights as a phosphoglucosamine mutase in support of peptidoglycan synthesis” (PLoS Genetics, 2019).

Columns and labels:
Type in all cases: biochemical
PgcA [1] = biological target: T1, PgcA (Bacillus subtilis, UniProt P18159); assay: LC-MS assay of glucose 6-phosphate formation; conditions: 5 mM MgCl2, 20 uM glucose-1,6-bisphosphate, 50 mM Tris-HCl pH 8.0; PGM reaction
T1 construct: N-terminal 6xHis tag, tag cleavage not mentioned; expressed in E. coli DH5alpha, Ni-NTA purified
T1 sequence (P18159 1-581): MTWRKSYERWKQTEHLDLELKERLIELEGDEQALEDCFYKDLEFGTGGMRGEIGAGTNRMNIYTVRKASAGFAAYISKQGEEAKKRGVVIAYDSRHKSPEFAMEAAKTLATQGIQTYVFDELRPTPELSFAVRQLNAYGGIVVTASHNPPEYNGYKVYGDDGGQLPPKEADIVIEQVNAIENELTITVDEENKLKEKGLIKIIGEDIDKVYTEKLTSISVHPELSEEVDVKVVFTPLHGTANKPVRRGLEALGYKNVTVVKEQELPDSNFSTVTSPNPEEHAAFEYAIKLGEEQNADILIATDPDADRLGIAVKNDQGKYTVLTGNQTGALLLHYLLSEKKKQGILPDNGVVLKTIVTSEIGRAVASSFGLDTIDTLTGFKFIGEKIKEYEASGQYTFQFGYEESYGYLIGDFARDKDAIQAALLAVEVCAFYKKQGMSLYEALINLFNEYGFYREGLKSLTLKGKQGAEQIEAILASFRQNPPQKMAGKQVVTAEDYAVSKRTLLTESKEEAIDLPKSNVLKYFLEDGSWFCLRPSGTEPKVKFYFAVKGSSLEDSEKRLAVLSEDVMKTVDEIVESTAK

GlmM = biological target: T2, GlmM (Bacillus subtilis, UniProt O34824); assay: LC-MS assay of glucosamine 6-phosphate formation; conditions: 5 mM MgCl2, 0.7 mM glucose-1,6-bisphosphate, 50 mM Tris-HCl pH 8.0; PNGM reaction
T2 construct: purified protein; tag and expression of GlmM not described separately
T2 sequence (O34824 1-448): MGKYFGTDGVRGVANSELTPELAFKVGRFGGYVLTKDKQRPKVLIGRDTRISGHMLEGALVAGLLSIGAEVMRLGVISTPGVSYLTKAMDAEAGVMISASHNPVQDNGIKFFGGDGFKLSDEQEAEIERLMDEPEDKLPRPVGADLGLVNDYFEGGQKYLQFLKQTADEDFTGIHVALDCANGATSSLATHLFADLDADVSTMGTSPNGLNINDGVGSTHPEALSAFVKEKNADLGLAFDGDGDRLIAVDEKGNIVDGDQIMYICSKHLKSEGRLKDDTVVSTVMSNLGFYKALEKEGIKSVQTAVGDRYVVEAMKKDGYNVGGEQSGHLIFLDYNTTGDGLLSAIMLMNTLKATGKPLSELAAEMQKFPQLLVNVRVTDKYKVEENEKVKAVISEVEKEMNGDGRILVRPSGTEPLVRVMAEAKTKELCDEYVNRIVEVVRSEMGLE

PgcA [2] = biological target: T1, PgcA; assay: LC-MS assay of glucosamine 6-phosphate formation; conditions: 5 mM MgCl2, 20 uM glucose-1,6-bisphosphate, 50 mM Tris-HCl pH 8.0; PNGM reaction

| Compound | KM (PgcA [1]) | KM (GlmM) | KM (PgcA [2]) |
| --- | --- | --- | --- |
| O=P(O)(O)O[C@H]1O[C@H](CO)[C@@H](O)[C@H](O)[C@H]1O [Glc-1-P] | Both PgcA and PgcA G47S were equally active in the PGM reaction | – | – |
| N[C@H]1[C@@H](OP(=O)(O)O)O[C@H](CO)[C@@H](O)[C@@H]1O [GlcN-1-P] | – | GlmM from B. subtilis, which had an affinity for GlcN-1-P substrate | using GlcN-1-P as substrate to monitor the PNGM reaction |
